According to patent publication US20260216170A1, “TETRAHYDROISOQUINOLINE HETEROBIFUNCTIONAL BCL-XL DEGRADERS” (Treeline Biosciences, Inc., priority 2023, published 2026):

Molecular target: T1, Human BCL-XL protein (N-terminal HiBiT tagged BCL-XL expressed in HT1080 cells) (Homo sapiens, UniProt Q07817)
T1 construct: expressed in transfected cells; host or cells: HT-1080 (ATCC CCL-121), stably transduced with lentivirus pLV-UBC-N-HiBiT-BCL-XL-PGK-puro and selected with puromycin
Assay: HiBiT Based Degradation Assay
Assay type: cell-based
Settings: 24 hours incubation; for DC50: BCL-XL degradation, HT1080 cells expressing N-HiBiT-BCL-XL, normalized with DMSO control, geometric mean for multiple data points, read-out: EC50 (24 h); for Ymin (24 h): bottom of BCL-XL degradation curve (remaining HiBiT-BCL-XL signal vs DMSO control), HT1080 cells
Summary of the method: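 BCL-XL degradation was read as Nano-Glo HiBiT lytic luminescence relative to DMSO after a 24 h compound treatment of HT1080 cells carrying stably integrated N-HiBiT-BCL-XL. EC50 values come from four-parameter logistic curves, with the hook-curve minimum fixed as bottom, and are geometric means where tested repeatedly.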

T1 sequence (Q07817 whole entry): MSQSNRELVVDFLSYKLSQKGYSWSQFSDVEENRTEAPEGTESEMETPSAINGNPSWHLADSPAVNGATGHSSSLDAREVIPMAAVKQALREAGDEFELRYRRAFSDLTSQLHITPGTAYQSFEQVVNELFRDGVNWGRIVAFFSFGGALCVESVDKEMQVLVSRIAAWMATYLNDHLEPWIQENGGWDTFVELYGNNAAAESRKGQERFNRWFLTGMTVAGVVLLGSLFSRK

Row | SMILES | DC50 [nM] | Ymin (24 h)
1 | COc1c(NC(=O)CN2CCC3(CC2)CC(COc2ccc(-c4ccc(N5CCc6cccc(C(=O)Nc7nc8ccccc8s7)c6C5)nc4C(=O)O)c(C)c2)C3)ccc2c(C3CCC(=O)NC3=O)nn(C)c12 (stereo not drawn) [Compound 128, 6-(8-(benzo[d]thiazol-2-ylcarbamoyl)-3,4-dihydroisoquinolin-2(1H)-yl)-3-(4-((7-(2-((3-(2,6-dioxopiperidin-3-yl)-7-methoxy-1-methyl-1H-indazol-6-yl)amino)-2-oxoethyl)-7-azaspiro[3.5]nonan-2-yl)methoxy)-2-methylphenyl)picolinic acid] | < 10 | A (Ymin < 30%)
2 | Cn1nc(C2CCC(=O)NC2=O)c2ccc(NC(=O)CN3CCC(CCCOc4cccc(-c5ccc(N6CCc7ccnc(C(=O)Nc8nc9ccccc9s8)c7C6)nc5C(=O)O)c4C(F)(F)F)CC3)cc21 (stereo not drawn) [Compound 159, 6-[8-(1,3-benzothiazol-2-ylcarbamoyl)-3,4-dihydro-1H-2,7-naphthyridin-2-yl]-3-[3-[3-[1-[2-[[3-(2,6-dioxo-3-piperidyl)-1-methyl-indazol-6-yl]amino]-2-oxo-ethyl]-4-piperidyl]propoxy]-2-(trifluoromethyl)phenyl]pyridine-2-carboxylic acid] | 10 to 100 | B (30% ≤ Ymin < 50%)
3 | Cn1nc(C2CCC(=O)NC2=O)c2ccc(NC(=O)CN3CCC(CCCOc4ccc(-c5ccc(N6CCc7cccc(C(=O)Nc8nc9ccccc9s8)c7C6)nc5C(=O)O)c(F)c4)CC3)cc21 (stereo not drawn) [Compound 199] | < 10 | A (Ymin < 30%)
4 | C[C@@H]1CC(CCCOc2cccc(-c3ccc(N4CCc5cccc(C(=O)Nc6nc7ccccc7s6)c5C4)nc3C(=O)O)c2C(F)(F)F)CCN1CC(=O)Nc1ccc2c(C3CCC(=O)NC3=O)nn(C)c2c1 (stereo partly drawn) [Compound 215d] | 10 to 100 | B (30% ≤ Ymin < 50%)
5 | Cc1cc2c(C3CCC(=O)NC3=O)nn(C)c2cc1NC(=O)CN1CCC2(CC1)CC(COc1cccc(-c3ccc(N4CCc5cccc(C(=O)Nc6nc7ccccc7s6)c5C4)nc3C(=O)O)c1C)C2 (stereo not drawn) [Compound 118] | 100 to 1000 | B (30% ≤ Ymin < 50%)
6 | COc1c(NC(=O)CN2CCC3(CC2)CC(Oc2ccc(-c4ccc(N5CCc6ccnc(C(=O)Nc7nc8ccccc8s7)c6C5)nc4C(=O)O)c(C(F)(F)F)c2)C3)ccc2c(C3CCC(=O)NC3=O)nn(C)c12 (stereo not drawn) [Compound 171, 6-(8-(benzo[d]thiazol-2-ylcarbamoyl)-3,4-dihydro-2,7-naphthyridin-2(1H)-yl)-3-(4-((7-(2-((3-(2,6-dioxopiperidin-3-yl)-7-methoxy-1-methyl-1H-indazol-6-yl)amino)-2-oxoethyl)-7-azaspiro[3.5]nonan-2-yl)oxy)-2-(trifluoromethyl)phenyl)picolinic acid] | 10 to 100 | B (30% ≤ Ymin < 50%)
7 | COc1c(NC(=O)CN2CCC3(CC2)CC(COc2cccc(-c4ccc(N5CCc6ccnc(C(=O)Nc7nc8ccccc8s7)c6C5)nc4C(=O)O)c2C(F)(F)F)C3)ccc2c(C3CCC(=O)NC3=O)nn(C)c12 (stereo not drawn) [Compound 162, 6-[8-(1,3-benzothiazol-2-ylcarbamoyl)-3,4-dihydro-1H-2,7-naphthyridin-2-yl]-3-[3-[[7-[2-[[3-(2,6-dioxo-3-piperidyl)-7-methoxy-1-methyl-indazol-6-yl]amino]-2-oxo-ethyl]-7-azaspiro[3.5]nonan-2-yl]methoxy]-2-(trifluoromethyl)phenyl]pyridine-2-carboxylic acid] | 10 to 100 | B (30% ≤ Ymin < 50%)
8 | Cc1c(-c2ccc(N3CCc4cccc(C(=O)Nc5nc6ccccc6s5)c4C3)nc2C(=O)O)cccc1N(C)CCCC1CCN(CC(=O)Nc2ccc3c(C4CCC(=O)NC4=O)nn(C)c3c2)CC1 (stereo not drawn) [Compound 220] | 10 to 100 | C (50% ≤ Ymin < 70%)
9 | Cc1c(OC2CC3(CCN(CC(=O)Nc4ccc5c(C6CCC(=O)NC6=O)nn(C)c5c4)CC3)C2)cccc1-c1ccc(N2CCc3cccc(C(=O)Nc4nc5ccccc5s4)c3C2)nc1C(=O)O (stereo not drawn) [Compound 113, 6-[8-(1,3-benzothiazol-2-ylcarbamoyl)-3,4-dihydro-1H-isoquinolin-2-yl]-3-[3-[[7-[2-[[3-(2,6-dioxo-3-piperidyl)-1-methyl-indazol-6-yl]amino]-2-oxo-ethyl]-7-azaspiro[3.5]nonan-2-yl]oxy]-2-methyl-phenyl]pyridine-2-carboxylic acid] | < 10 | B (30% ≤ Ymin < 50%)
10 | COc1c(NC(=O)CN2CC[C@H](CCCOc3cccc(-c4ccc(N5CCc6cccc(C(=O)Nc7nc8ccccc8s7)c6C5)nc4C(=O)O)c3C)C[C@@H]2C)ccc2c(C3CCC(=O)NC3=O)nn(C)c12 (stereo partly drawn) [Compound 208b] | 10 to 100 | B (30% ≤ Ymin < 50%)
11 | Cn1nc(C2CCC(=O)NC2=O)c2ccc(NC(=O)CN3CCC(CCCOc4ccc(-c5ccc(N6CCc7cccc(C(=O)Nc8nc9ccccc9s8)c7C6)nc5C(=O)O)c(C(F)(F)F)c4)CC3)nc21 (stereo not drawn) [Compound 146] | 10 to 100 | B (30% ≤ Ymin < 50%)
12 | Cc1cc(OCCCC2CCN(CC(=O)Nc3ccc4c(C5CCC(=O)NC5=O)nn(C)c4c3)CC2)ccc1-c1ccc(N2CCc3ccnc(C(=O)Nc4nc5ccccc5s4)c3C2)nc1C(=O)O (stereo not drawn) [Compound 141, 6-[8-(1,3-benzothiazol-2-ylcarbamoyl)-3,4-dihydro-1H-2,7-naphthyridin-2-yl]-3-[4-[3-[1-[2-[[3-(2,6-dioxo-3-piperidyl)-1-methyl-indazol-6-yl]amino]-2-oxo-ethyl]-4-piperidyl]propoxy]-2-methyl-phenyl]pyridine-2-carboxylic acid] | < 10 | A (Ymin < 30%)
13 | Cn1nc(C2CCC(=O)NC2=O)c2ccc(NC(=O)CN3CCC4(CC3)CC(Oc3ccc(-c5ccc(N6CCc7cccc(C(=O)Nc8nc9ccccc9s8)c7C6)nc5C(=O)O)c(C(F)(F)F)c3)C4)cc21 (stereo not drawn) [Compound 155, 6-(8-(benzo[d]thiazol-2-ylcarbamoyl)-3,4-dihydroisoquinolin-2(1H)-yl)-3-(4-((7-(2-((3-(2,6-dioxopiperidin-3-yl)-1-methyl-1H-indazol-6-yl)amino)-2-oxoethyl)-7-azaspiro[3.5]nonan-2-yl)oxy)-2-(trifluoromethyl)phenyl)picolinic acid] | < 10 | A (Ymin < 30%)
14 | Cn1nc(C2CCC(=O)NC2=O)c2ccc(NC(=O)CN3CCC4(CC3)CC(COc3ccc(-c5ccc(N6CCc7cccc(C(=O)Nc8nc9ccccc9s8)c7C6)nc5C(=O)O)c(C(F)(F)F)c3)C4)cc21 (stereo not drawn) [Compound 131, 6-(8-(benzo[d]thiazol-2-ylcarbamoyl)-3,4-dihydroisoquinolin-2(1H)-yl)-3-(4-((7-(2-((3-(2,6-dioxopiperidin-3-yl)-1-methyl-1H-indazol-6-yl)amino)-2-oxoethyl)-7-azaspiro[3.5]nonan-2-yl)methoxy)-2-(trifluoromethyl)phenyl)picolinic acid] | < 10 | B (30% ≤ Ymin < 50%)
15 | Cc1cc(OCC2CC3(CCN(CC(=O)Nc4ccc5c(C6CCC(=O)NC6=O)nn(C)c5c4F)CC3)C2)ccc1-c1ccc(N2CCc3cccc(C(=O)Nc4nc5ccccc5s4)c3C2)nc1C(=O)O (stereo not drawn) [Compound 122, 6-(8-(benzo[d]thiazol-2-ylcarbamoyl)-3,4-dihydroisoquinolin-2(1H)-yl)-3-(4-((7-(2-((3-(2,6-dioxopiperidin-3-yl)-7-fluoro-1-methyl-1H-indazol-6-yl)amino)-2-oxoethyl)-7-azaspiro[3.5]nonan-2-yl)methoxy)-2-methylphenyl)picolinic acid] | 10 to 100 | B (30% ≤ Ymin < 50%)
16 | Cn1nc(C2CCC(=O)NC2=O)c2ccc(NC(=O)CN3CCC4(CC3)CC(Oc3ccc(-c5ccc(N6CCc7cccc(C(=O)Nc8nc9ccccc9s8)c7C6)nc5C(=O)O)c(C(F)(F)F)c3)C4)c(F)c21 (stereo not drawn) [Compound 189] | < 10 | B (30% ≤ Ymin < 50%)
17 | C[C@H]1C[C@H](CCCOc2cccc(-c3ccc(N4CCc5cccc(C(=O)Nc6nc7ccccc7s6)c5C4)nc3C(=O)O)c2C(F)(F)F)CCN1CC(=O)Nc1ccc2c(C3CCC(=O)NC3=O)nn(C)c2c1 (stereo partly drawn) [Compound 215a] | 10 to 100 | B (30% ≤ Ymin < 50%)
18 | Cc1cc(OCCC[C@@H]2CCN(CC(=O)Nc3ccc4c(C5CCC(=O)NC5=O)nn(C)c4c3)[C@@H](C)C2)ccc1-c1ccc(N2CCc3cccc(C(=O)Nc4nc5ccccc5s4)c3C2)nc1C(=O)O (stereo partly drawn) [Compound 210a] | 10 to 100 | A (Ymin < 30%)
19 | Cc1c(OCCC[C@H]2CCN(CC(=O)Nc3ccc4c(C5CCC(=O)NC5=O)nn(C)c4c3)[C@H](C)C2)cccc1-c1ccc(N2CCc3ccnc(C(=O)Nc4nc5ccccc5s4)c3C2)nc1C(=O)O (stereo partly drawn) [Compound 216c] | 10 to 100 | B (30% ≤ Ymin < 50%)
20 | Cc1c(OCC2CC3(CCN(CC(=O)Nc4ccc5c(C6CCC(=O)NC6=O)nn(C)c5c4F)CC3)C2)cccc1-c1ccc(N2CCc3cccc(C(=O)Nc4nc5ccccc5s4)c3C2)nc1C(=O)O (stereo not drawn) [Compound 120] | 10 to 100 | B (30% ≤ Ymin < 50%)
21 | COc1c(NC(=O)CN2CCC(CCCOc3ccc(-c4ccc(N5CCc6ccnc(C(=O)Nc7nc8ccccc8s7)c6C5)nc4C(=O)O)c(C(F)(F)F)c3)CC2)ccc2c(C3CCC(=O)NC3=O)nn(C)c12 (stereo not drawn) [Compound 158, 6-[8-(1,3-benzothiazol-2-ylcarbamoyl)-3,4-dihydro-1H-2,7-naphthyridin-2-yl]-3-[4-[3-[1-[2-[[3-(2,6-dioxo-3-piperidyl)-7-methoxy-1-methyl-indazol-6-yl]amino]-2-oxo-ethyl]-4-piperidyl]propoxy]-2-(trifluoromethyl)phenyl]pyridine-2-carboxylic acid] | 10 to 100 | B (30% ≤ Ymin < 50%)
